Measurements published in US7452869B2, “NIP3 family of proteins” (University of Manitoba, priority 2000, dated 2008).
Where “and” joins values, the source holds several entries; their conditions need not be identical. Identical values can stand only once. Starred links: 1 amine or outer side, 2 acyl side, 3 side chain; linkers in the order of their positions; H or OH if unused. Positions of bridges follow the written chain, without caps; N, C: chain ends. Non-standard residues stand in square brackets, D forms with d. Residues, ends and D or L forms follow the SMILES beside them. Chains are numbered I, II in the order given. *: point of attachment. Actinocin(9to1) = Cc1c2oc3c(C)ccc(C(=O)[*:1])c3nc-2c(C(=O)[*:2])c(N)c1=O; NMeV = CN[C@H](C(=O)O)C(C)C; Cbz = O=C(OCc1ccccc1)*; Sar = CNCC(=O)O; CH2F = FC*

Key:
caspase 3-like proteases = assay: caspase activation, colorigenic cleavage of Ac-DEVD-pNA by lysates of transfected 293T cells; assay type: biochemical
Method: Lysates were collected from 293T cells, transiently transfected via the CaP04 method (Ray, R., et al., 1999), at the indicated times. Aliquots of these lysates were run under Laemmli sodium dodecyl sulfate-polyacrylamide gel electrophoresis (SDS-PAGE) conditions and immunoblotted with mouse monoclonal anti-PARP. Results were visualized with an enhanced chemiluminescence system (Amersham Pharmacia Biotech, Amersham, U. K.). Transfected 293T cells were also assayed for caspase cleavage via colorigenic cleavage of the peptide Ac-DEVD-pNA (Biomol, Plymouth Meeting, Pa.), according to the conditions outlined by Quignon et al. (Scaffidi, C., et al., 1998), using 100 mM peptide. Where appropriate, samples were preincubated with 500 nM Ac-DEVD-fmk for 30 minutes at room temperature. Data were acquired on a Multiskan MCC/340 (Titertek) plate reader at 405 nm.

293T cells [1] = assay: DNA fragmentation (TUNEL) in transfected 293T cells; assay type: cell-based; set-up: dose or concentration left out as unconfirmed
Method: DNA fragmentation was detected using the in situ cell death detection kit with fluorescein (Boehringer Mannheim) as per the manufacturer's recommendations in the presence or absence of […] Ac-zVAD-fmk or Ac-FA-fmk. Images were captured as described earlier. No fewer than 200 nuclei were scored manually for each sample. Annexin V staining was performed exactly as described by the manufacturer (Boehringer Mannheim), and samples were analyzed via flow cytometry.

ventricular myocytes = assay: cell viability of ventricular myocytes, calcein acetoxymethyl ester / ethidium homodimer-1; assay type: cell-based; conditions: for BNIP3-induced cell death of ventricular myocytes: z-VAD-fmk 25 to 100 μmol/L, dose dependent
Method: Ventricular myocytes were isolated from 1- to 2-day-old Sprague-Dawley rats (University of Manitoba, Winnipeg, Canada) and submitted to primary culture as reported (Kirshenbaum and Schneider, 1995). Myocytes were subjected to hypoxia for 24 hours in an air-tight chamber continually gassed with 95% N2-5% CO2, as previously reported (Moissac et al., 2000; Long et al., 1997; Tanaka et al., 1994). Adult rat hearts (n=3) were excised from adult rats (250 to 300 g) and subjected to global hypoxia for 1 hour on a modified Langendorff perfusion system with buffer continually gassed with 95% N2-5% CO2, as previously reported (Kirshenbaum, 1993). Heart failure was induced in rats by surgical ligation of the left anterior descending coronary artery, as previously reported (Dixon et al., 1992). Non-failing sham control hearts and those with heart failure were excised from animals 8 weeks after myocardial infarction. Hearts (n=3) were dissected to remove the infarcted scar tissue, and the left ventricular free wall was homogenized and analyzed by Western blot for BNIP3 expression. Animals were handled according to guidelines established by the University of Manitoba and Canadian Council on Animal Care.
The cDNAs for BNIP3 full-length (BNIP3) and carboxyl terminal transmembrane domain deletion mutant (BNIP3ΔTM) have been described previously (Vande et al., 2000). Recombinant adenoviruses encoding the full-length BNIP3 or transmembrane deletion mutant are designated AdBNIP3 or AdBNIP3ΔTM, respectively, and generated as reported previously (Kirshenbaum et al., 1993).
Cell viability was determined using the vital dyes 2 μmol/L calcein acetoxymethyl ester (green) to determine the number of living cells and 2 μmol/L ethidium homodimer-1 (red) (Molecular Probes) to identify the number of dead cells (Kirshenbaum and Schneider, 1995). The number of green cells versus red cells was used to determine changes in cell viability (Moissac et al., 2000). Cells were analyzed from at least n=3 independent myocyte isolations counting ≧200 cells for each condition tested. Data are expressed as mean±SE percent reduction from control.

[2] = tested on: primary hippocampal neurons; assay: excitotoxic cell death of primary hippocampal neurons, trypan blue exclusion; assay type: cell-based, rat
Method: Primary hippocampal neurons were prepared from 18-day-old embryonic Sprague-Dawley rats as described previously by Haughey, N. J. et al. (2001). Briefly, hippocampal tissue was dissociated by gentle tituration in a calcium-free Hank's balanced salt solution and was centrifuged at 1000×g. Cells were resuspended in Dulbecco's modified Eagle's medium (DMEM)/F12 nutrient mixture containing 10% heat-inactivated fetal bovine serum and 1% antibiotic solution (104 IU of penicillin G/ml, 10 mg streptomycin/ml and 25 μg amphotericin B/ml) in 0.9% NaCl (Sigma, St Louis, Mo., USA). Hippocampal neurons were plated at a density of 2×10^5 cells/ml on 12-mm diameter poly d-lysine-coated glass coverslips. Three hours after plating, the media was replaced with serum-free Neurobasal media containing 1% B-27 supplement (Gibco, Rockville, Md., USA).
To determine the extent to which NMDA-type glutamate receptors were involved in BNIP3 expression and excitotoxic cell death, the inventors used the agonist NMDA (100 μM) in the absence or presence of the NMDA receptor antagonist MK-801 (10 μM). To determine the extent to which caspase activation contributes to BNIP3-mediated cell death, hippocampal cells were incubated in the absence or presence of the broad spectrum cell permeable caspase inhibitors z-VAD-FMK (50 μM) and BOC-D-FMK (50 μM); these inhibitors were applied 30 minutes prior to application of glutamate or NMDA. […]
(§1) In vitro cell death was estimated using trypan blue exclusion. Cells were incubated in 0.4% trypan blue solution for 30 minutes and then counted on a bright-field microscope. Nonviable cells were distinguished by their dark blue staining. To examine nuclear morphology, nuclear DNA was stained with Hoescht 33342. DNA fragmentation was detected by TUNEL using an in situ cell death detection kit with fluorescein. Statistical analyses were by ANOVA with Tukey's post-test.

293T cells [3] = assay: b-galactosidase cell death assay in transiently transfected 293T cells; assay type: cell-based
Method: (§2) Various doses of the peptide caspase inhibitor Ac-zVAD-fmk (Enzyme System Products, Dublin, Calif.) were applied to 1×10^5 293T cells cotransfected, using LipofectAmine reagent (Gibco-BRL), with 0.01 mg of the reporter plasmid pcDNA3bgal plus the indicated expression plasmids to a final amount of 0.75 mg of DNA (see FIG. 2), as adjusted with empty vector. Cells were fixed, stained, and evaluated 27 hours posttransfection as described previously (Miura, M. et al., 1993). Similar strategies were used to evaluate the expression of pcDNA1-p35 as a caspase inhibitor (1.95 mg of DNA total) and to determine the killing efficiency of BNIP3 expressed in MEF cells (1.2 mg of DNA with 0.3 mg of b-galactosidase).

MEFs = assay: b-galactosidase cell death assay in wild-type, Apaf-1, caspase 9 or caspase 3 deficient MEFs; assay type: cell-based, mouse
Method: as §2
Results are expressed as the mean […] SE from three independent experiments. […] N, N-Dimethyl formamide (DMF) was used to dilute the adriamycin.

MCF-7 cells = assay: cytochrome c release by indirect immunofluorescence, MCF-7; assay type: cell-based
Method: (§3) Mitochondria were isolated from CaP04-transfected 293T cells using 70 strokes (tight pestle) in a 1-ml Dounce homogenizer (Wheaton) in […] of CFS buffer as previously described (Thornberry, N. A., et al., 1998). Mitochondria were resuspended in H buffer (Thornberry, N. A., et al., 1998). Aliquots of […] of protein were analyzed on Laemmli SDS-15% PAGE gels and immunoblotted with anticytochrome c monoclonal antibody. Equal loading was ensured by probing the same blot with monoclonal antiactin. Results were visualized with enhanced chemiluminescence. Cytochrome c release was also determined via indirect immunofluorescence of transfected MCF-7 and 293T cells. Briefly, cells grown on coverslips were costained with Cy3-conjugated mouse anti-cytochrome c monoclonal antibody and an appropriate tag (HA for BNIP3 and FLAG for tBID), which was visualized with FITC-conjugated goat anti-rabbit IgG. Cells were also stained with Hoechst dye to determine apoptotic nuclear morphology. No fewer than 200 cells were scored for each sample. Fluorescence was visualized and captured using a Zeiss axiophot microscope equipped with a cooled charge-coupled device camera.

[4] = tested on: primary hippocampal neurons; assay: primary hippocampal neurons transfected with BNIP3 plasmids, DNA condensation and survival; assay type: cell-based, rat
Method: Transfection of cells was performed on day four in culture with LipofectAMINE 2000 […] according to manufacturer's protocol. Cells were transfected with a pcDNA3-BNIP3 plasmid encoding the full length of BNIP3 and a pcDNA3-BNIP3-163 plasmid that encodes a truncated form (the first 163 amino acids) of BNIP3 that lacks the functional transmembrane domain. Cells were used after 9 days in culture for excitotoxicity experiments. Neuronal cell death was assessed using trypan blue exclusion, morphological changes, and Hoescht 33342 staining. Morphological characteristics were examined on a Nikon Eclipse TE200 microscope and fluorescence was examined on a Zeiss Axioskop 2.
as §1

293T cells [5] = assay: cytochrome c release by indirect immunofluorescence, 293T; assay type: cell-based
Method: as §3

PT pore = assay: mitochondrial Dcm (DiOC6), ROS production (HE) and PI staining by flow cytometry in BNIP3-transfected 293T cells; assay type: cell-based; conditions: 293T cells, 8 hours after transfection
Method: Changes in mitochondrial function were determined by incubating 10 6 293T cells, transiently transfected via the CaP04 method, with either 1 mM JC-1, 40 nM DiOC6, or 2 mM dihydroethidium (HE) (all from Molecular Probes, Inc.) for 30 minutes at 37° C. in Hanks' balanced salt solution (Gibco-BRL). Cells were scored using a FACScalibur flow cytometer (Becton-Dickinson, San Jose, Calif.), and data were analyzed on Celiquest software, version 3.1 (Becton-Dickinson). Controls were performed in the presence or absence of […] mClCCP (Sigma) or an excess of 30% H2 02. For inhibition experiments, cyclosporin A (Sigma) or bongkrekic acid (a gift from J. A. Duine, Delft University, Delft, The Netherlands) was added 2 hours prior to transfection. All cells were harvested 8 hours after transfection and stained with 40 nM DiOC6, 2 mM HE, or 1 mg of propidium iodide (PI) (Sigma) per ml. In all cases, samples were gated to exclude cellular debris.

[6] = inhibitor, 24 hours posttransfection

CC(=O)N[C@@H](CC(=O)O)C(=O)N[C@@H](CCC(=O)O)C(=O)N[C@H](C(=O)N[C@@H](CC(=O)O)C(=O)CF)C(C)C [Ac-DEVD-fmk]
proteolytic activity of lysates of BNIP3 or BNIP3DTM transfected cells with inhibitor (caspase 3-like proteases; 500 nM Ac-DEVD-fmk): not inhibited
Ac-DEVD-pNA substrate cleavage in tBID-transfected cells with inhibitor (caspase 3-like proteases; lysates preincubated with 500 nM Ac-DEVD-fmk): blocked

CC(=O)NC(Cc1ccccc1)C(=O)NC(C)C(=O)CF (stereo not shown) [Ac-FA-fmk]
DNA fragmentation (TUNEL) in parallel populations (293T cells [1]; Ac-FA-fmk): No effect

COC(=O)C[C@H](NC(=O)[C@H](C)NC(=O)[C@@H](NC(=O)OCc1ccccc1)C(C)C)C(=O)CF [Ac-zVAD-fmk] (Cbz-Val-Ala-Asp(OMe)-CH2F)
BNIP3-induced cell death of ventricular myocytes (ventricular myocytes; listed as z-VAD-fmk): prevented
BNIP3-induced cell death of ventricular myocytes (ventricular myocytes; listed as z-VADfmk): suppressed
cell death caused by glutamate or NMDA ([2]; z-VAD-FMK 50 μM alone, trypan blue 6 hours after glutamate or NMDA): did not prevent
BNIP3-induced cell death in presence of caspase inhibitor (293T cells [3]; 293T cells transfected with BNIP3, evaluated 27 hours posttransfection, p35 plasmid up to 1.5 mg): unaffected
suppression of cell death of tBID or caspase 9/Apaf-1 transfectants (293T cells [3]; 293T cells, 27 hours posttransfection, same concentration of inhibitor): greater than 50%
DNA fragmentation (TUNEL) in BNIP3 transfectants (293T cells [1]; [6]): partially inhibited
DNA fragmentation (TUNEL) in tBID-expressing cells (293T cells [1]; [6]): nearly completely inhibited

CN[C@H](CC(=O)O)C(=O)O [NMDA]
neuronal cell death (trypan blue exclusion) ([2]; 6 hours after application, p<0.01): significantly increased

Cc1c2oc3c(C)ccc(C(=O)N[C@@H]4C(=O)N[C@H](C(C)C)C(=O)N5CCC[C@H]5C(=O)N(C)CC(=O)N(C)[C@@H](C(C)C)C(=O)O[C@@H]4C)c3nc-2c(C(=O)N[C@@H]2C(=O)N[C@H](C(C)C)C(=O)N3CCC[C@H]3C(=O)N(C)CC(=O)N(C)[C@@H](C(C)C)C(=O)O[C@@H]2C)c(N)c1=O [actinomycin D] (I: T[dV]P[Sar][NMeV] / II: T[dV]P[Sar][NMeV]; ester I:1-I:C, II:1-II:C; linker I:N-II:N via Actinocin(9to1))
number of trypan blue positive cells caused by glutamate toxicity ([2]; actinomycin D 1 mg/ml added, p<0.01, to untreated control levels): significantly decreased
cell death rates, drug alone ([2]; actinomycin D alone): did not affect

COc1cccc2c1C(=O)c1c(O)c3c(c(O)c1C2=O)C[C@@](O)(C(=O)CO)C[C@@H]3O[C@H]1C[C@H](N)[C@H](O)[C@H](C)O1 [adriamycin]
adriamycin-induced cell death in mutant MEFs (MEFs; Apaf-1, caspase 9 or caspase 3 deficient MEFs, 3 mg of adriamycin per ml for 24 hours): profound resistance

BNIP3: full-length BNIP3, expressed from plasmid or adenovirus; mutation None
increase in myocyte death (ventricular myocytes; adenovirus encoding full-length BNIP3 versus control virus, P<0.05): 8.3 fold
cytochrome c release (in words) (MCF-7 cells): no significant cytochrome c release
neurons surviving glutamate toxicity ([4]; glutamate 100 μM at day 9 in culture, 5 days after transfection): 32%
BNIP3-positive neurons showing DNA condensation / DNA damage ([4]; transiently transfected hippocampal neurons): 81% and 85%
cell death induced by transient transfection (MEFs; wild-type and all mutant MEF lines): 50%
increase in Ac-DEVD-pNA substrate cleavage after transfection (caspase 3-like proteases; 293T lysates harvested 1 to 36 hours posttransfection, versus untransfected controls): only marginal increases
cytochrome c release (in words) (293T cells [5]): only very low levels
DiOC6-low and HE-high cells (PT pore): 55%
